In US20260374773A1, “MULTI-CYCLIC IRAK AND FLT3 INHIBITING COMPOUNDS AND USES THEREOF” (CHILDREN'S HOSPITAL MEDICAL CENTER, priority 2022, published 2026):

How the values were obtained:
MOLM14 F691L cells = assay: MOLM14 F691L cell viability (Cell Titer Glo); type: cell-based; details: Homo sapiens
Experimental: Both cell lines have activated FLT3 receptors, each of which carry additional resistance mutations in the kinase domain (D835Y and F691L, respectively).
MOLM14 D835Y and MOLM14 F691L cells were grown in RPMI-1640 media supplemented with 20% fetal bovine serum (FBS). For viability/cytotoxicity assessments, cells were seeded into 1536-well white polystyrene tissue culture-treated Greiner plates using a Multidrop Combi dispenser (ThermoFisher), in final volume 5 μL of growth media per well, at a density of 1000 cells per well. After cell addition, 23 nL of test compound were transferred into individual wells (22 doses tested for each test compound, with a 1:2 dilution series starting at 10 μM) via a 1536 pin-tool. Bortezomib (final concentration 2.3 μM) was used as a positive control for cell cytotoxicity. Plates were incubated for 48 hours at standard incubator conditions covered by a stainless steel gasketed lid to prevent evaporation. 48 hours post compound addition, 3 μL of Cell Titer Glo (Promega) were added to each well and plates were incubated at room temperature for 15 minutes with the stainless-steel lid in place. Luminescence readings were taken using a Viewlux imager (PerkinElmer) with a 2 second exposure time per plate.

FLT3 = molecular target: T1, FLT3 (Homo sapiens, UniProt P36888); assay: NanoBRET target engagement assay in HEK-293 cells, FLT3; type: cell-based; details: live HEK-293 cells, 1 h
T1 sequence (P36888 27-993): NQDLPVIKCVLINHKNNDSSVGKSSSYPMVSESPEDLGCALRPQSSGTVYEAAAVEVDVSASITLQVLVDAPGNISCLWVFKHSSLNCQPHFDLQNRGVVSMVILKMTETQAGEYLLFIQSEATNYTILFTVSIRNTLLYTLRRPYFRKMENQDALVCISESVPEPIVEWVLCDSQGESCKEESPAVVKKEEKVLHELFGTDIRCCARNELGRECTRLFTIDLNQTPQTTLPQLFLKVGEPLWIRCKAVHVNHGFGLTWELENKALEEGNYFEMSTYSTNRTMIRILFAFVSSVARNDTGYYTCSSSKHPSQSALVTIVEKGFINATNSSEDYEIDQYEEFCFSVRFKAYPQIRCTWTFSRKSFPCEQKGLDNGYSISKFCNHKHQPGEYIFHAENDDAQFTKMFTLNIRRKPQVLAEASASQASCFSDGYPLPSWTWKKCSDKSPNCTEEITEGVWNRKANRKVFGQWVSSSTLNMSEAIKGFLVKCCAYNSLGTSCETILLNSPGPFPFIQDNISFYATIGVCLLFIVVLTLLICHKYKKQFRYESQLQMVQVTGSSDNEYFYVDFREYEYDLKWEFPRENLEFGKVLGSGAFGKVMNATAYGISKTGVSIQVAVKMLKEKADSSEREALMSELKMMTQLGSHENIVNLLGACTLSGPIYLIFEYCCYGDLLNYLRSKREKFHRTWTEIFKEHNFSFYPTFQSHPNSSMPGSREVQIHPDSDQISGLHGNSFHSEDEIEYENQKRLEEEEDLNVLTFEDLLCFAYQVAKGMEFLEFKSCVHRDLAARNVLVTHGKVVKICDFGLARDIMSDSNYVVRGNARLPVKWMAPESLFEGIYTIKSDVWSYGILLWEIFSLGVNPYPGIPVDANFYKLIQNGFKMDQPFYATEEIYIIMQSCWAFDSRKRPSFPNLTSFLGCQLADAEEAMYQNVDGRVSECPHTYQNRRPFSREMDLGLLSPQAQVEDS
Text: The NanoBRET assay measures kinase engagement in real time in the context of the intact cell. Unlike the previously described biochemical kinase assay methodology, the NanoBRET assay measures the binding and activity characteristics under equilibrium conditions using full-length kinases in the presence of cellular concentrations of ATP in live, uncompromised cells. As such, the assay provides a more relevant assessment of kinase potency and selectivity that would be expected to be observed in the native cellular environment, where potency is often considerably lower than that observed in the isolated biochemical assays (Vasta, J. D. et al., (2018) Cell Chem. Biol. 25, 206-214). The assay uses a Kinase-NanoLuc® fusion vector expressing a kinase protein to which a luciferase tag has been added, a cell-permeant fluorescent NanoBRET™ tracer, a NanoLuc® substrate, and an extracellular NanoLuc® inhibitor. Upon expression of the luciferase-tagged kinase, cells will produce a strong BRET signal only in the presence of the NanoBRET™ tracer. The extracellular NanoLuc® inhibitor ensures that the BRET signal observed emanates only from live cells. Because the BRET signal has tight distance constraints, addition of the test compound will decrease the BRET signal if the compound competes with the NanoBRET™ tracer for binding to the kinase domain. Under the appropriate tracer conditions established by the manufacturer, quantitative intracellular affinity and relative potency can then be determined using Mass Action model equations.
HEK-293 cells were purchased from ATCC. FuGENEHD Transfection Reagent, Kinase-NanoLucfusion plasmids, Transfection Carrier DNA, NanoBRETTracers and dilution buffer, NanoBRETNano-Glo Substrate, Extracellular NanoLucInhibitor were obtained from Promega.
Assays were conducted following Promega assay protocol with some modifications. HEK-293 Cells were transiently transfected with Kinase-NanoLucFusion Vector DNA by FuGENEHD Transfection Reagent. Testing compounds were delivered into 384 well assay plate by Echo 550 (LabcyteInc, Sunnyvale, CA). Transfected cells were harvested and mixed with NanoBRETTracer Reagent and dispensed into 384 well plates and incubated at 37 °C in 5% CO2 cell culture incubator for 1 hour. The NanoBRETNano-Glo Substrate plus Extracellular NanoLucInhibitor Solution were added into the wells of the assay plate and incubated for 2-3 minutes at room temperature. The donor emission wavelength (460 nm) and acceptor emission wavelength (600 nm) were measured in the En Visionplate reader. The BRET Ratios were calculated.
BRET Ratio=[(Acceptor sample÷Donor sample)−(Acceptor no-tracer control÷Donor no-tracer control)].
The IC50 values of compounds were calculated with Prism GraphPad program.
• 1). Cultivate HEK-293 cells (70-80% confluence) appropriately prior to assay. Trypsinize and collect HEK-293 cells. • 2). Prepare lipid:DNA complexes as follows: • a. Prepare a 10 μg/ml solution of DNA in Opti-MEM without serum that consists of the following ratios of carrier DNA and DNA encoding NanoLuc® fusion. 9.0 μg/mL of Transfection Carrier DNA, 1.0 μg/mL of NanoLuc fusion vector DNA and 1 mL of Opti-MEM without phenol red. Mix thoroughly. • b. Add 30 μl of FuGENE HD Transfection Reagent into each milliliter of DNA mixture to form lipid:DNA complex. • c. Mix by inversion 10 times. • d. Incubate at ambient temperature for 20 minutes to allow complexes to form. • 3). In a sterile, conical tube, mix 1 part of lipid:DNA complex with 20 parts of HEK-293 cells in suspension. Mix gently by inversion 5 times. • 4). Dispense cells+lipid:DNA complex into a sterile tissue culture dish and incubate for 22-24 hours.
Each test compound is delivered from the compound source plate to the wells of 384-well white NBS plate by Echo 550.
3. Preparation of Cells with NanoBRET™ Tracer Reagent • 1). Remove medium from dish with transfected HEK-293 cells via aspiration, trypsinize and allow cells to dissociate from the dish. • 2). […]

## COc1cn2ncc(-c3nc(N[C@@H]4CCCNC4)ccc3F)c2nc1C1CC1 [Compound 2, (R)-6-(5-cyclopropyl-6-methoxypyrazolo[1,5-a]pyrimidin-3-yl)-5-fluoro-N-(piperidin-3-yl)pyridin-2-amine]
MOLM14 F691L cells; MOLM-14, Table 16, 48 h
  IC50: 14 nM

## COc1cn2ncc(-c3nc(N[C@H]4CNCC[C@@H]4F)ccc3F)c2nc1C1CC1 [Compound 3, 6-(5-cyclopropyl-6-methoxypyrazolo[1,5-a]pyrimidin-3-yl)-5-fluoro-N-((3S,4S)-4-fluoropiperidin-3-yl)pyridin-2-amine]
FLT3; Table 14
  IC50: < 0.5 nM
MOLM14 F691L cells; MOLM-14, Table 16, 48 h
  IC50: 6 nM

## COc1cn2ncc(-c3ccnc(N[C@H]4CNCC[C@@H]4F)n3)c2nc1C(C)(C)O [Compound 3a, 2-(3-(2-(((3S,4S)-4-fluoropiperidin-3-yl)amino)pyrimidin-4-yl)-6-methoxypyrazolo[1,5-a]pyrimidin-5-yl)propan-2-ol]
FLT3; Table 20
  IC50: 1510 nM
MOLM14 F691L cells; MOLM-14, Table 22, 48 h
  IC50: 565 nM

## COc1cn2ncc(-c3nc(N[C@@H]4CCCNC4)ncc3F)c2nc1C(C)(C)O [Compound 4a, (R)-2-(3-(5-fluoro-2-(piperidin-3-ylamino)pyrimidin-4-yl)-6-methoxypyrazolo[1,5-a]pyrimidin-5-yl)propan-2-ol]
FLT3; Table 20
  IC50: 52 nM
MOLM14 F691L cells; MOLM-14, Table 22, 48 h
  IC50: 101 nM

## COc1cn2ncc(-c3ccc(F)c(N[C@@H]4CCCNC4)n3)c2nc1C1CC1 [Compound 5, (R)-6-(5-cyclopropyl-6-methoxypyrazolo[1,5-a]pyrimidin-3-yl)-3-fluoro-N-(piperidin-3-yl)pyridin-2-amine]
FLT3; Table 14
  IC50: 9 nM
MOLM14 F691L cells; MOLM-14, Table 16, 48 h
  IC50: 127 nM

## COc1cn2ncc(-c3nc(N[C@H]4CNC[C@@H]4F)ncc3F)c2nc1C(C)(C)O [Compound 5a, 2-(3-(5-fluoro-2-(((3S,4S)-4-fluoropyrrolidin-3-yl)amino)pyrimidin-4-yl)-6-methoxypyrazolo[1,5-a]pyrimidin-5-yl)propan-2-ol]
FLT3; Table 20
  IC50: 113 nM
MOLM14 F691L cells; MOLM-14, Table 22, 48 h
  IC50: 225 nM

## COc1cn2ncc(-c3ccc(F)c(N[C@H]4CNCC[C@@H]4F)n3)c2nc1C1CC1 [Compound 6, 6-(5-cyclopropyl-6-methoxypyrazolo[1,5-a]pyrimidin-3-yl)-3-fluoro-N-((3S,4S)-4-fluoropiperidin-3-yl)pyridin-2-amine]
FLT3; Table 14
  IC50: < 0.5 nM
MOLM14 F691L cells; MOLM-14, Table 16, 48 h
  IC50: 71 nM

## COc1cn2ncc(-c3ccnc(N[C@H]4CNCC[C@@H]4F)n3)c2nc1C1CC1 [Compound 7a, 4-(5-cyclopropyl-6-methoxypyrazolo[1,5-a]pyrimidin-3-yl)-N-((3S,4S)-4-fluoropiperidin-3-yl)pyrimidin-2-amine]
FLT3; Table 20
  IC50: 9 nM

## COc1cn2ncc(-c3ccnc(N[C@H]4CNC[C@@H]4F)n3)c2nc1C1CC1 [Compound 8a, 4-(5-cyclopropyl-6-methoxypyrazolo[1,5-a]pyrimidin-3-yl)-N-((3S,4S)-4-fluoropyrrolidin-3-yl)pyrimidin-2-amine]
FLT3; Table 20
  IC50: 11 nM

## COc1cn2ncc(-c3nc(N[C@@H]4CCCNC4)c(C#N)cc3F)c2nc1C(C)(C)O [Compound 9, (R)-5-fluoro-6-(5-(2-hydroxypropan-2-yl)-6-methoxypyrazolo[1,5-a]pyrimidin-3-yl)-2-(piperidin-3-ylamino)nicotinonitrile]
MOLM14 F691L cells; MOLM-14, Table 16, 48 h
  IC50: 142 nM

## COc1cn2ncc(-c3cncc(N[C@@H]4CCCNC4)n3)c2nc1C1CC1 [Compound 11a, (R)-6-(5-cyclopropyl-6-methoxypyrazolo[1,5-a]pyrimidin-3-yl)-N-(piperidin-3-yl)pyrazin-2-amine]
FLT3; Table 20
  IC50: 2 nM

## COc1cn2ncc(-c3cncc(N[C@H]4CNCC[C@@H]4F)n3)c2nc1C1CC1 [Compound 12a, 6-(5-cyclopropyl-6-methoxypyrazolo[1,5-a]pyrimidin-3-yl)-N-((3S,4S)-4-fluoropiperidin-3-yl)pyrazin-2-amine]
FLT3; Table 20
  IC50: 1 nM

## COc1cn2ncc(-c3nc(N[C@H]4CNC[C@@H]4F)ncc3F)c2nc1C1CC1 [Compound 13a, 4-(5-cyclopropyl-6-methoxypyrazolo[1,5-a]pyrimidin-3-yl)-5-fluoro-N-((3S,4S)-4-fluoropyrrolidin-3-yl)pyrimidin-2-amine]
FLT3; Table 20
  IC50: 0.5 nM

## COc1cn2ncc(-c3nc(N[C@@H]4CCCNC4)ncc3F)c2nc1C1CC1 [Compound 14a, (R)-4-(5-cyclopropyl-6-methoxypyrazolo[1,5-a]pyrimidin-3-yl)-5-fluoro-N-(piperidin-3-yl)pyrimidin-2-amine]
FLT3; Table 20
  IC50: < 0.5 nM

## COc1cn2ncc(-c3nc(N[C@H]4CNCC[C@@H]4F)ncc3F)c2nc1C1CC1 [Compound 15a, 4-(5-cyclopropyl-6-methoxypyrazolo[1,5-a]pyrimidin-3-yl)-5-fluoro-N-((3S,4S)-4-fluoropiperidin-3-yl)pyrimidin-2-amine]
FLT3; Table 20
  IC50: 2 nM

## COc1cn2ncc(-c3cccc(N[C@H]4CNCC[C@@H]4F)n3)c2nc1C1CC1 [Compound 21, 6-(5-cyclopropyl-6-methoxypyrazolo[1,5-a]pyrimidin-3-yl)-N-((3S,4S)-4-fluoropiperidin-3-yl)pyridin-2-amine]
FLT3; Table 14
  IC50: 0.6 nM

## COc1cn2ncc(-c3nc(N[C@H]4CNCC[C@@H]4F)c(F)cc3F)c2nc1C1CC1 [Compound 22, 6-(5-cyclopropyl-6-methoxypyrazolo[1,5-a]pyrimidin-3-yl)-3,5-difluoro-N-((3S,4S)-4-fluoropiperidin-3-yl)pyridin-2-amine]
FLT3; Table 14
  IC50: < 0.5 nM
